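Each compound was tested at five concentrations against cells in 96-well plates for 48 hours. GI50 is the concentration that inhibits growth by half.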 Activity calls are given as the source filed them. Rule as the data show it: active = GI50 up to about 1.1 µM and inactive = higher.
Key:
Assay in all cases: inhibition of tumour cell growth, NCI panel, 48 h
K562 = tested on: K562
SK-MEL-28 = tested on: SK-MEL-28
OVCAR-4 = tested on: OVCAR-4
MCF7 = tested on: MCF7
NCI-H226 = tested on: NCI-H226
SW-620 = tested on: SW-620
OVCAR-3 = tested on: OVCAR-3
MOLT-4 = tested on: MOLT-4
Hs-578T = tested on: Hs-578T
HT-29 = tested on: HT-29
SF-268 = tested on: SF-268
OVCAR-8 = tested on: OVCAR-8
CCRF-CEM = tested on: CCRF-CEM
OVCAR-5 = tested on: OVCAR-5
SNB-19 = tested on: SNB-19
SF-539 = tested on: SF-539
EKVX = tested on: EKVX
A549 = tested on: A549
U-251 = tested on: U-251
HL-60 = tested on: HL-60
PC-3 = tested on: PC-3
SK-MEL-5 = tested on: SK-MEL-5
NCI-H23 = tested on: NCI-H23
HCC 2998 = tested on: HCC 2998
NCI/ADR-RES = tested on: NCI/ADR-RES
LOX IMVI = tested on: LOX IMVI
IGROV-1 = tested on: IGROV-1
ACHN = tested on: ACHN
KM12 = tested on: KM12
A498 = tested on: A498
786-0 = tested on: 786-0
M14 = tested on: M14
RPMI-8226 = tested on: RPMI-8226
RXF 393 = tested on: RXF 393
SN12C = tested on: SN12C
BT-549 = tested on: BT-549
SNB-75 = tested on: SNB-75
UO-31 = tested on: UO-31
SK-OV-3 = tested on: SK-OV-3
SR = tested on: SR
NCI-H460 = tested on: NCI-H460
CAKI-1 = tested on: CAKI-1
UACC-62 = tested on: UACC-62
HCT-15 = tested on: HCT-15
TK-10 = tested on: TK-10
MDA-MB-231 = tested on: MDA-MB-231
Malme-3M = tested on: Malme-3M
MDA-N = tested on: MDA-N
HOP-62 = tested on: HOP-62
MDA-MB-435 = tested on: MDA-MB-435
T47D = tested on: T47D
COLO 205 = tested on: COLO 205
DU-145 = tested on: DU-145
SF-295 = tested on: SF-295
HOP-92 = tested on: HOP-92
NCI-H522 = tested on: NCI-H522
UACC-257 = tested on: UACC-257
SK-MEL-2 = tested on: SK-MEL-2
HCT-116 = tested on: HCT-116

`O=C1CCCC2=C1CC1=C(CCCC1=O)N2c1ccc([N+](=O)[O-])cc1` was tested, and the GI50 (K562) was > 100 µM (inactive), the GI50 (SK-MEL-28) was > 100 µM (inactive) and the GI50 (OVCAR-4) was > 100 µM (inactive). For the same molecule, the GI50 (MCF7) was > 100 µM (inactive), the GI50 (NCI-H226) was > 100 µM (inactive) and the GI50 (SW-620) was > 100 µM (inactive). For the same molecule, the GI50 (OVCAR-3) was > 100 µM (inactive), the GI50 (MOLT-4) was > 100 µM (inactive) and the GI50 (Hs-578T) was > 100 µM (inactive). The GI50 (HT-29) was > 100 µM (inactive), the GI50 (SF-268) was > 100 µM (inactive) and the GI50 (OVCAR-8) was > 100 µM (inactive). For the same molecule, the GI50 (CCRF-CEM) was > 100 µM (inactive), the GI50 (OVCAR-5) was > 100 µM (inactive) and the GI50 (SNB-19) was > 100 µM (inactive). For the same molecule, the GI50 (SF-539) was > 100 µM (inactive), the GI50 (EKVX) was > 100 µM (inactive) and the GI50 (A549) was > 100 µM (inactive). The GI50 (U-251) was > 100 µM (inactive), the GI50 (HL-60) was > 100 µM (inactive) and the GI50 (PC-3) was > 100 µM (inactive). The GI50 (SK-MEL-5) was > 100 µM (inactive), the GI50 (NCI-H23) was > 100 µM (inactive) and the GI50 (HCC 2998) was > 100 µM (inactive). For the same molecule, the GI50 (NCI/ADR-RES) was > 100 µM (inactive), the GI50 (LOX IMVI) was > 100 µM (inactive) and the GI50 (IGROV-1) was > 100 µM (inactive). For the same molecule, the GI50 (ACHN) was > 100 µM (inactive), the GI50 (KM12) was > 100 µM (inactive) and the GI50 (A498) was > 100 µM (inactive). For the same molecule, the GI50 (786-0) was > 100 µM (inactive), the GI50 (M14) was > 100 µM (inactive) and the GI50 (RPMI-8226) was > 100 µM (inactive). For the same molecule, the GI50 (RXF 393) was > 100 µM (inactive), the GI50 (SN12C) was > 100 µM (inactive) and the GI50 (BT-549) was > 100 µM (inactive). The GI50 (SNB-75) was > 100 µM (inactive), the GI50 (UO-31) was > 100 µM (inactive) and the GI50 (SK-OV-3) was > 100 µM (inactive). The GI50 (SR) was > 100 µM (inactive), the GI50 (NCI-H460) was > 100 µM (inactive) and the GI50 (CAKI-1) was > 100 µM (inactive). For the same molecule, the GI50 (UACC-62) was > 100 µM (inactive), the GI50 (HCT-15) was > 100 µM and the GI50 (TK-10) was > 100 µM (inactive).
In the case of `CCOC(=O)C1NCCc2c1[nH]c1ccccc21` (configuration not stated), the GI50 (K562) is reported as > 10 µM (inactive), the GI50 (SK-MEL-28) is reported as > 10 µM (inactive) and the GI50 (OVCAR-4) is reported as > 10 µM (inactive). For the same molecule, the GI50 (MCF7) was > 10 µM (inactive), the GI50 (SW-620) was > 10 µM (inactive) and the GI50 (MDA-MB-231) was > 10 µM (inactive). For the same molecule, the GI50 (OVCAR-3) was > 10 µM (inactive), the GI50 (Malme-3M) was > 10 µM (inactive) and the GI50 (MOLT-4) was > 10 µM (inactive). For the same molecule, the GI50 (HT-29) was > 10 µM (inactive), the GI50 (SF-268) was > 10 µM (inactive) and the GI50 (OVCAR-8) was > 10 µM (inactive). For the same molecule, the GI50 (MDA-N) was > 10 µM (inactive), the GI50 (CCRF-CEM) was > 10 µM (inactive) and the GI50 (HOP-62) was > 10 µM (inactive). The GI50 (EKVX) was > 10 µM (inactive), the GI50 (MDA-MB-435) was > 10 µM (inactive) and the GI50 (A549) was > 10 µM (inactive). The GI50 (HL-60) was > 10 µM (inactive), the GI50 (PC-3) was > 10 µM (inactive) and the GI50 (SK-MEL-5) was > 10 µM (inactive). For the same molecule, the GI50 (NCI-H23) was > 10 µM (inactive), the GI50 (T47D) was > 10 µM (inactive) and the GI50 (HCC 2998) was > 10 µM (inactive). For the same molecule, the GI50 (COLO 205) was > 10 µM (inactive), the GI50 (DU-145) was > 10 µM (inactive) and the GI50 (IGROV-1) was > 10 µM (inactive). For the same molecule, the GI50 (SF-295) was > 10 µM (inactive), the GI50 (HOP-92) was > 10 µM (inactive) and the GI50 (KM12) was > 10 µM (inactive). The GI50 (786-0) was > 10 µM (inactive), the GI50 (M14) was > 10 µM (inactive) and the GI50 (RPMI-8226) was > 10 µM (inactive). The GI50 (RXF 393) was > 10 µM (inactive), the GI50 (SN12C) was > 10 µM (inactive) and the GI50 (BT-549) was > 10 µM (inactive). The GI50 (SNB-75) was > 10 µM (inactive), the GI50 (NCI-H522) was > 10 µM (inactive) and the GI50 (SK-OV-3) was > 10 µM (inactive). For the same molecule, the GI50 (SR) was > 10 µM (inactive), the GI50 (UACC-257) was > 10 µM (inactive) and the GI50 (CAKI-1) was > 10 µM (inactive). For the same molecule, the GI50 (UACC-62) was > 10 µM (inactive), the GI50 (HCT-15) was > 10 µM and the GI50 (TK-10) was > 10 µM (inactive).
For `C[n+]1cc2cc(O)c(O)cc2c2ccc3cc(O)c(O)cc3c21.c1ccncc1`, the GI50 (K562) was 1.71 µM (inactive), the GI50 (SK-MEL-28) was 4.66 µM (inactive) and the GI50 (OVCAR-4) was 2.88 µM (inactive). For the same molecule, the GI50 (MCF7) was 2.09 µM (inactive), the GI50 (NCI-H226) was 4.86 µM (inactive) and the GI50 (SW-620) was 3.51 µM (inactive). The GI50 (MDA-MB-231) was 2.79 µM (inactive), the GI50 (OVCAR-3) was 2.37 µM (inactive) and the GI50 (Malme-3M) was 2.59 µM (inactive). For the same molecule, the GI50 (MOLT-4) was 0.912 µM (active), the GI50 (HT-29) was 3.3 µM (inactive) and the GI50 (SF-268) was 2.18 µM (inactive). The GI50 (OVCAR-8) was 3.1 µM (inactive), the GI50 (MDA-N) was 3.25 µM (inactive) and the GI50 (CCRF-CEM) was 1.17 µM (inactive). For the same molecule, the GI50 (OVCAR-5) was 6.24 µM (inactive), the GI50 (SNB-19) was 1.49 µM (inactive) and the GI50 (SK-MEL-2) was 3.05 µM (inactive). The GI50 (SF-539) was 2.62 µM (inactive), the GI50 (HOP-62) was 2.12 µM (inactive) and the GI50 (EKVX) was 3.37 µM (inactive). For the same molecule, the GI50 (MDA-MB-435) was 2.46 µM (inactive), the GI50 (A549) was 4.05 µM (inactive) and the GI50 (U-251) was 1.6 µM (inactive). The GI50 (PC-3) was 3.37 µM (inactive), the GI50 (SK-MEL-5) was 3.24 µM (inactive) and the GI50 (NCI-H23) was 2.42 µM (inactive). For the same molecule, the GI50 (T47D) was 5.86 µM (inactive), the GI50 (HCC 2998) was 3.92 µM (inactive) and the GI50 (NCI/ADR-RES) was 2.3 µM (inactive). The GI50 (COLO 205) was 10.3 µM (inactive), the GI50 (LOX IMVI) was 2.61 µM (inactive) and the GI50 (DU-145) was 3.57 µM (inactive). For the same molecule, the GI50 (IGROV-1) was 2.02 µM (inactive), the GI50 (SF-295) was 3.39 µM (inactive) and the GI50 (HCT-116) was 1.4 µM (inactive). For the same molecule, the GI50 (ACHN) was 2.69 µM (inactive), the GI50 (HOP-92) was 2.31 µM (inactive) and the GI50 (KM12) was 3.96 µM (inactive). For the same molecule, the GI50 (A498) was 2.51 µM (inactive), the GI50 (786-0) was 2.03 µM (inactive) and the GI50 (M14) was 2.18 µM (inactive). For the same molecule, the GI50 (RPMI-8226) was 5.4 µM (inactive), the GI50 (RXF 393) was 2.07 µM (inactive) and the GI50 (SN12C) was 2.96 µM (inactive). For the same molecule, the GI50 (BT-549) was 2.26 µM (inactive), the GI50 (SNB-75) was 3.31 µM (inactive) and the GI50 (NCI-H522) was 0.617 µM (active). The GI50 (UO-31) was 0.982 µM (active), the GI50 (SK-OV-3) was 4.33 µM (inactive) and the GI50 (SR) was 2.09 µM (inactive). For the same molecule, the GI50 (UACC-257) was 4.25 µM (inactive), the GI50 (NCI-H460) was 2.86 µM (inactive) and the GI50 (CAKI-1) was 3.05 µM (inactive). For the same molecule, the GI50 (UACC-62) was 1.75 µM (inactive), the GI50 (HCT-15) was 2.47 µM and the GI50 (TK-10) was 4.01 µM (inactive).
